The record followed here is ChEMBL document CHEMBL3244023, “A structure-carcinogenicity study of 4-nitroquinoline 1-oxides using the SIMCA method of pattern recognition” (J Med Chem, 1978).

Data set [1] can be described thus: Lipophilicy, log P of the compound. Type of data set: physicochemical. The note with it: octanol/water.
The test system of another data set is Mus musculus. Kind of data set: Carcinogenicity in mouse assessed as tumor development administered sc in left groin 6 times at 10-day interval. Type of data set: toxicity, organism-based. The note with it: in vivo.

Regarding `CCCCc1ccc2c(c1)c([N+](=O)[O-])cc[n+]2[O-]`, the lipophilicity (logP) (in general, a log measure of how a compound divides between an organic and an aqueous phase) in data set [1] is 3.11. Besides, the Activity entry in the data set with Mus musculus was “Toxic”.

`CC(C)(C)c1cc([N+](=O)[O-])c2ccccc2[n+]1[O-]`: the logP in data set [1] was 1.07.

The compound `[O-][n+]1ccc(NO)c2cc(C3CCCCC3)ccc21` displayed a logP in data set [1] of 2.89. Besides, in the data set on Mus musculus, the Activity result is given as “Non-toxic”.

For the compound `CCCCc1ccc2c(c1)c(NO)cc[n+]2[O-]`, in data set [1], the logP was found to be 2.1. Moreover, the Activity result with Mus musculus is “Toxic”.

Take `CCc1cc([N+](=O)[O-])c2ccccc2[n+]1[O-]`: the logP in data set [1] is 1.76. Further, the Activity result with Mus musculus is “Toxic”.

`O=[N+]([O-])c1c(Cl)c[n+]([O-])c2ccccc12` registered a logP in data set [1] of 1.33.

Take `Cc1ccc2c(c1)c([N+](=O)[O-])cc[n+]2[O-]`: the logP in data set [1] is 1.24. Further, in the data set on Mus musculus, the Activity entry is “Toxic”.

`O=[N+]([O-])c1c(F)c[n+]([O-])c2ccccc12` displayed a logP in data set [1] of 1.25.

In the case of `CCCCCCc1ccc2c(c1)c(NO)cc[n+]2[O-]`, the logP in data set [1] is 3.35. Besides, the Activity result with Mus musculus is on record as “Non-toxic”.

In data set [1], `O=[N+]([O-])c1ccc2c(c1)c([N+](=O)[O-])cc[n+]2[O-]` had a logP of 0.9.

Turning to `COc1c[n+]([O-])c2ccccc2c1[N+](=O)[O-]`, the logP in data set [1] was determined as 0.43. Besides, in the data set with Mus musculus, the Activity result is recorded as “Non-toxic”.

On to `O=C(O)c1ccc2c(c1)c([N+](=O)[O-])cc[n+]2[O-]`, for which the logP in data set [1] was determined as 0.42.

Regarding `O=[N+]([O-])c1ccc2c([N+](=O)[O-])cc[n+]([O-])c2c1`, the logP in data set [1] amounted to 0.45. Besides, the Activity entry with Mus musculus is given as “Non-toxic”.

`Cc1cccc2c([N+](=O)[O-])cc[n+]([O-])c12` came in with a logP in data set [1] of 1.48. Further, the Activity result in the data set on Mus musculus is “Toxic”.

`CC(C)(C)c1ccc2c(c1)c(NO)cc[n+]2[O-]` had a logP in data set [1] of 2.05. In addition, the Activity entry with Mus musculus is recorded as “Non-toxic”.

Consider `O=[N+]([O-])c1c(Br)c[n+]([O-])c2ccccc12`, for which, in data set [1], the lipophilicity (logP) turned out to be 1.99. In addition, the Activity entry in the data set with Mus musculus is recorded as “Toxic”.

With `CCCCCCc1ccc2c(c1)c([N+](=O)[O-])cc[n+]2[O-]`, the logP in data set [1] is 3.26. The Activity result in the data set with Mus musculus was “Non-toxic”.

Consider `O=[N+]([O-])c1cc[n+]([O-])c2ccc(C3CCCCC3)cc12`, for which the logP in data set [1] came out at 2.8. Further, in the data set with Mus musculus, the Activity entry was “Non-toxic”.

In turn, `CCc1c(C)c([N+](=O)[O-])c2ccccc2[n+]1[O-]` had a logP in data set [1] of 2.56.

In turn, `Cc1cc([N+](=O)[O-])c2ccccc2[n+]1[O-]` had a logP in data set [1] of 1.25. Further, in the data set on Mus musculus, the Activity entry was “Toxic”.

`O=[N+]([O-])c1cc[n+]([O-])c2c([N+](=O)[O-])cccc12` gave a logP in data set [1] of 0.76. Besides, the Activity entry in the data set with Mus musculus is reported as “Non-toxic”.

Take `O=[N+]([O-])c1cc[n+]([O-])c2cc(Cl)c(Cl)cc12`: the logP in data set [1] came to 2.49. In the data set with Mus musculus, the Activity result is listed as “Toxic”.

As for `O=[N+]([O-])c1cccc2c1c([N+](=O)[O-])cc[n+]2[O-]`, the logP in data set [1] turned out to be 0.95.

In the case of `O=[N+]([O-])c1cc[n+]([O-])c2ccccc12` [4-NITROQUINOLINE-1-OXIDE], the logP in data set [1] amounted to 1.01. Moreover, in the data set on Mus musculus, the Activity result is “Toxic”.

With `O=[N+]([O-])c1cc[n+]([O-])c2ccc(Cl)cc12`, the log partition coefficient (logP) in data set [1] came out at 1.4. For the same compound, the Activity result in the data set with Mus musculus is reported as “Toxic”.

Take `O=[N+]([O-])c1ccc2c(c1)c(NO)cc[n+]2[O-]`: in data set [1], the logP is -0.28. Besides, the Activity result in the data set on Mus musculus is reported as “Toxic”.

For `CC(C)(C)c1ccc2c(c1)c([N+](=O)[O-])cc[n+]2[O-]`, in data set [1], the logP amounted to 3.06.

In turn, `O=[N+]([O-])c1cc[n+]([O-])c2cc(Cl)ccc12` yielded a logP in data set [1] of 1.75. In addition, the Activity entry in the data set on Mus musculus is recorded as “Toxic”.

On to `Cc1cccc2c1c([N+](=O)[O-])cc[n+]2[O-]`, for which the logP in data set [1] was found to be 1.25. Further, the Activity entry in the data set with Mus musculus is on record as “Toxic”.

`Cc1ccc2c([N+](=O)[O-])cc[n+]([O-])c2c1`: the logP in data set [1] is 1.49. For the same compound, the Activity entry in the data set with Mus musculus is on record as “Toxic”.

In data set [1], `O=[N+]([O-])c1cc[n+]([O-])c2c(F)cccc12` gave a logP of 1.

In turn, `O=[N+]([O-])c1cc[n+]([O-])c2cccc(Cl)c12` gave a logP in data set [1] of 1.75. Further, the Activity result with Mus musculus is “Toxic”.

Consider `Cc1c[n+]([O-])c2ccccc2c1[N+](=O)[O-]`, for which, in data set [1], the logP came to 1.24.
